From patent US20250221983A1, “PHARMACEUTICAL COMPOSITION FOR PREVENTING RELAPSE INTO CANNABIS USE AND APPLICATION THEREOF” (Shenzhen ScienCare Pharmaceutical Co., Ltd, priority 2023, published 2025)
Entries after “also recorded” stand apart in the source; their conditions may differ.

Key:
Format in all cases: in vivo, LE rats
[1] = tested on: LE rat self-administration model; assay: Environmental cue-induced relapse test in WIN55,212-2 self-administration model; conditions: rimonabant 2 mg/kg, implants 4 tablets/rat
Method: (§1) In each self-administration process, the effective lever was activated, and the injection system performed automatic administration ([…]). Each injection was about 0.1 mL, with a duration of 4 s-6 s. Meanwhile, each injection would be accompanied by the effective lever light turning on for 10 s and the room light turning off for 20 s. […] Data of activating the ineffective lever was recorded, but no drug injection was given. During the training, the computer automatically recorded the number of effective and ineffective lever presses and the number of injections. During the training, food was restricted to 12 g.

[2] = tested on: LE rat self-administration model; assay: Drug (WIN55,212-2) and environmental cue-induced relapse test in self-administration model; conditions: rimonabant 2 mg/kg, implants 4 tablets/rat
Method: The rats received 2 h of environmental regression again. During the regression, only the spatial environment during the self-administration training was presented, without other clues such as lights and pump sounds as well as drug injections. The computer automatically recorded the number of behavioral responses of rats, and the regression was continued until reaching the criteria.
In the rimonabant group, rats were administered the rimonabant injection (2 mg/kg, ip) 15 min before the test through intraperitoneal injection at a dose of 2 mg per kilogram of body weight. In the control group, rats were administered normal saline 15 min before the test. In the implant administration groups, there would be no administration. All rats were administered cannabis (WIN55,212-2 injection 0.3 mg/kg, ip) through intraperitoneal injection at a dose of […] of body weight, and then a 2-h drug and environmental cue-induced relapse test was immediately performed. The cues were consistent with those of self-administration training, including levers and syringe pump sound, but no drug in the syringe pump. The number of injections and effective lever pressing data were recorded by the computer.
In the control group, rats were administered normal saline 15 min before the test, and in the implant groups, there would be no administration. All rats were administered WIN55,212-2 (0.3 mg/kg, i.p) through intraperitoneal administration, and then a 2-h drug and environmental cue-induced relapse test was immediately performed. The cues were consistent with those of self-administration training, including levers and syringe pump sound, but no drug in the syringe pump. The number of injections and effective lever pressing data were recorded by the computer.

[3] = tested on: LE rat self-administration; assay: Addiction formation: WIN55,212-2 self-administration training
Method: as §1
In the control group and rimonabant group, sham operations were performed. After 3 days of postoperative care, addiction formation training was started on the fourth day.
In the control group and rimonabant group, rats were administered the corresponding compound 15 min before the daily training. The rimonabant was at a dosage of 2 mg/kg, i.p. In the control group, rats were administered normal saline, and in the implant administration groups, there would be no administration. The training operation was the same as the self-administration training in example 1. During the training, the computer automatically recorded the number of effective and ineffective lever presses and the number of injections. During the training, food was restricted to 12 g.

[4] = tested on: LE rat self-administration; assay: Regression of drug-seeking behavior after self-administration training
Method: After the establishment of the self-administration model, the rats received 2 h of environmental regression for each round of regression training. During the regression, only the spatial environment and lever during the training were presented, without other clues such as lights and pump sounds as well as drug injections. The computer automatically recorded the number of behavioral responses of rats, and the rats reached the regression criteria (i.e., the total number of effective lever presses decreased to 20% of the total number of effective lever presses on the first day of the regression training or less than 10 times).

[5] = 2 h environmental cue-induced relapse test, n = 10
[6] = last regression before cue test, n = 10
[7] = 2 h test after WIN55,212-2 ip, n = 10
[8] = re-regression before cue + drug test, n = 10
[9] = female LE rats, rimonabant 2 mg/kg, implants 4 tablets/rat, n = 10

Cc1c(C(=O)NN2CCCCC2)nn(-c2ccc(Cl)cc2Cl)c1-c1ccc(Cl)cc1 [Rimonabant]
Number of effective lever presses, Cue priming [1, 5]: 57.70 ± 10.27
Number of ineffective lever presses, Cue priming [1, 5]: 12.10 ± 3.33
Number of effective lever presses, Last-Ext [1, 6]: 6.80 ± 1.62
Number of ineffective lever presses, Last-Ext [1, 6]: 3.10 ± 0.86
cue-induced relapse behavior (number of effective lever presses compared with the control group), in words [1]: no significant inhibition effect; also recorded: not significant
Number of effective lever presses, Cue + drug priming [2, 7]: 63.50 ± 16.15
Number of ineffective lever presses, Cue + drug priming [2, 7]: 8.10 ± 2.08
Number of effective lever presses, Re-Ext [2, 8]: 10.30 ± 2.72
Number of ineffective lever presses, Re-Ext [2, 8]: 5.20 ± 3.0
cue and drug-induced relapse behavior (number of effective lever presses compared with the control group), in words [2]: no significant inhibition effect; also recorded: not significant
inhibition of the increase in the number of effective lever presses caused by addiction formation of win55,212-2, in words ([3]; compared with the control group): significantly inhibited; also recorded: significant inhibition effect
Addiction formation (26 days): Number of effective lever presses [3, 9]: 45.70 ± 8.21
Addiction formation (26 days): Number of ineffective lever presses [3, 9]: 9.49 ± 1.05
effect on the regression process of cannabis addiction, in words ([4]; compared with other groups): may accelerate the regression process and reduce the regression days
Regression (13 sessions): First stabilization [4, 9]: 7 days
Regression (13 sessions): Number of effective lever presses [4, 9]: 9.27 ± 2.21
